Laboratory results: patent publication US20200407398A1, “Short Proline-Rich Lipopeptide Potentiates Minocycline and Rifampicin Against Multidrug-and Extensively Drug-Resistant Pseudomonas Aeruginosa” (priority 2018, published 2020)
Where two headings read alike, the source gives them in different places. Peptide text beside a SMILES is read from it. * marks the point of attachment. Palmitoyl = CCCCCCCCCCCCCCCC(=O)*; Octanoyl = CCCCCCCC(=O)*

Tests used:
[1] = test system: methicillin-resistant S. aureus ATCC 33592; type: cell-based
Procedure: (§1) The synthesized SPRLPs were evaluated for their antibacterial potency against a panel of Gram-positive and Gram-negative bacteria (Tables 2 & 3). Some of the included pathogens were collected from patients visiting or admitted to participating Canadian hospitals through the CAN-ICU (27) and CANWARD (28) national surveillance studies. Antibacterial activity was assessed using minimum inhibitory concentration (MIC) against various clinical pathogens.
(§2) Isolates used in this study were either obtained from the American Type Culture Collection (ATCC), the Canadian National Intensive Care Unit (CAN-ICU) surveillance study (27) or the Canadian Ward Surveillance (CANWARD) study (28). Clinical isolates belonging to the CAN-ICU and CANWARD studies were recovered from patients suffering a presumed infectious disease entering or admitted in a participating medical center across Canada during the time of study. MDR P. aeruginosa strains in this study refer to those that are resistant to aminoglycosides, fluoroquinolones, cephalosporins, and carbapenems while XDR strains are those that are resistant to aminoglycosides, fluoroquinolones, cephalosporins, carbapenems, aztreonam and penicillin+β-lactamase inhibitor combination (39, 40).
(§3) Microbroth dilution susceptibility test following the Clinical and Laboratory Standards Institute (CLSI) guidelines (32) was performed to assess the in vitro antibacterial activity of SPRLPs. Overnight grown bacterial cultures were diluted in saline to achieve a 0.5 McFarland turbidity, followed by 1:50 dilution in Mueller-Hinton broth (MHB) for inoculation to a final concentration of 5×10^5 colony forming units/mL. The assay was done on a 96-well plate to which the agents of interest were 2-fold serially diluted in MHB and incubated with equal volumes of inoculum at 37° C. for 18 hours. MIC was determined as the lowest concentration to inhibit visible bacterial growth in form of turbidity, which was confirmed using EMax Plus microplate reader (Molecular Devices, USA) at a wavelength of 590 nm. The well containing MHB broth with or without bacterial cells was used as positive or negative control, respectively.

[2] = test system: E. faecium ATCC 27270; type: cell-based
Procedure: as §1, §2, §3

[3] = test system: P. aeruginosa CAN-ICU 62308 (gentamicin-resistant); type: cell-based
Procedure: as §1, §2, §3

[4] = test system: P. aeruginosa CANWARD-2011 96846 (gentamicin-, tobramycin-resistant); type: cell-based
Procedure: as §1, §2, §3

[5] = test system: E. coli CAN-ICU 63074 (amikacin-intermediate resistant); type: cell-based
Procedure: as §1, §2, §3

[6] = test system: methicillin-resistant S. epidermidis CAN-ICU 61589 (ceftazidime-resistant); type: cell-based; conditions: methicillin-resistant CAN-ICU 61589 (ceftazidime-resistant)
Procedure: as §1, §2, §3

[7] = test system: E. coli ATCC 25922; type: cell-based
Procedure: as §1, §2, §3

[8] = test system: P. aeruginosa wild-type PAO1; type: cell-based
Procedure: as §1, §2, §3

[9] = test system: S. aureus ATCC 29213; type: cell-based
Procedure: as §1, §2, §3

[10] = test system: E. coli CANWARD-2011 97615 (gentamicin-, tobramycin-, ciprofloxacin-resistant) aac(3′)iia; type: cell-based
Procedure: as §1, §2, §3

[11] = test system: P. aeruginosa ATCC 27853; type: cell-based
Procedure: as §1, §2, §3

[12] = test system: E. faecalis ATCC 29212; type: cell-based
Procedure: as §1, §2, §3

[13] = test system: A. baumannii CAN-ICU 63169; type: cell-based
Procedure: as §1, §2, §3

[14] = test system: S. maltophilia CAN-ICU 62584; type: cell-based
Procedure: as §1, §2, §3

[15] = test system: K. pneumoniae ATCC 13883; type: cell-based
Procedure: as §1, §2, §3

[16] = test system: methicillin-susceptible Staphylococcus epidermidis CANWARD-2008 81388; type: cell-based; conditions: methicillin-susceptible CANWARD-2008 81388
Procedure: as §1, §2, §3

[17] = test system: E. coli CAN-ICU 61714 (gentamicin-resistant); type: cell-based
Procedure: as §1, §2, §3

[18] = test system: wild-type and MDR/XDR P. aeruginosa clinical isolates; conditions: checkerboard assay; P. aeruginosa
Procedure: (§4) We evaluated the activity of SPRLPs in combination with fifteen clinically-used antibiotics against P. aeruginosa. Antibiotics tested included fluoroquinolones (moxifloxacin, ciprofloxacin and levofloxacin), aminoglycosides (gentamicin, tobramycin and amikacin), cephalosporins (ceftazidime and cefotaxime), carbapenems (meropenem and doripenem), aztreonam, rifampicin, minocycline, colistin and fosfomycin. The SPRLPs were screened initially at a fixed concentration of 8 μg/mL (5 μM) in combination with antibiotics against wild-type P. aeruginosa PAO1. We assessed potentiation by at least a four-fold absolute MIC reduction of the antibiotic, after which synergism was further validated by a conventional checkerboard assay. A fractional inhibitory concentration (FIC) index of ≤0.5, 0.5<x≤4 or >4 was interpreted as synergistic, indifferent or antagonistic interaction, respectively (31). FIC index was obtained by adding the FIC values of the antibiotic and the SPRLP adjuvant. FIC of antibiotics was calculated by dividing the MIC of the antibiotic in the presence of the adjuvant by the MIC of the antibiotic alone. Similarly, the FIC of adjuvant was calculated via dividing the MIC of the adjuvant in the presence of the antibiotic by the MIC of the adjuvant alone.
as §2, §3
(§5) The assay was performed on a 96-well plate, to which the agents of interest was 2-fold serially diluted in working MHB. Prior to serial dilution, SPRLP was added to the working MHB media so that a fixed final concentration of 8 μg/mL (5 μM) SPRLP per well was achieved. To ensure that the assay was working, the MIC determination test of the studied antibiotic (without SPRLP) was included on the same plate. Similar MIC results between the assay comparator and an independent MIC determination test (on a different plate) ensured validity of the synergy test. Overnight grown bacterial cultures were diluted in saline to 0.5 McFarland turbidity, followed by 1:50 dilution in MHB (without SPRLP) and inoculation into each well to a final concentration of approximately 5×10^5 colony forming units/mL. Wells containing only MHB (without SPRLP) with or without bacterial cells were used as positive or negative control, respectively.

[19] = test system: pig erythrocytes; type: cell-based
Procedure: Since PRAMPs are able to kill bacteria through membrane lysis, it is imperative to evaluate whether these synthesized SPRLPs also lyse eukaryotic membranes. The ability to lyse porcine red blood cells was assessed and the minimum concentration to result in 5% erythrocyte hemolysis (MHC) was reported (Tables 2 & 3). […] This greatly limits their therapeutic potential. […] However, all other SPRLPs were non-hemolytic (MHC>512 μg/mL).
The ability of SPRLPs to lyse eukaryotic red blood cells were quantified by the amount of hemoglobin released upon incubation with pig erythrocytes, following published protocols (37, 39). Fresh pig blood drawn from pig antecubital vein was centrifuged at 1000×g for 5 minutes at 4° C., washed with PBS three times and re-suspended in the same buffer, consecutively. Then, agents of interest were 2-fold serially diluted in PBS on 96-well plate and mixed with equal volumes of erythrocyte solution. Post 1-hour incubation at 37° C., intact cells were pelleted by centrifugation at 1000×g for 5 minutes at 4° C. The supernatant was then transferred to a new 96-well plate. The hemoglobin released was measured via EMax Plus microplate reader (Molecular Devices, USA) at 570 nm wavelength. Erythrocytes in PBS with or without 0.1% Triton X-100 was used as negative or positive control, respectively.

[20] = test system: Gram-positive bacteria; assay: Microbroth dilution MIC, range over panel; type: cell-based; conditions: against Gram-positive bacteria of the panel
Procedure: as §1, §3

[21] = test system: P. aeruginosa PAO1 (wild-type); assay: microbe, parasite or virus in culture; conditions: Pseudomonas aeruginosa, PAO1, read-out: MIC (agent alone)
Procedure: as §4, §3
as §5, with “respectively. The plate was then incubated at 37° C. for 18 hours and examined for visible turbidity, to which was confirmed using EMax Plus microplate reader (Molecular Devices, USA) at a wavelength of 590 nm. A 4-fold or more MIC reduction of antibiotic in the presence of 8 μg/mL (5 μM) SPRLP denoted a positive synergy result and was further validated by a checkerboard assay.” for “respectively.”
The assay was done on a 96-well plate as previously described (40, 41). The agent of interest was 2-fold serially diluted along the x-axis, while the adjuvant was 2-fold serially diluted along the y-axis to create a matrix in which each well consist of a combination of both at different concentrations.

[22] = test system: P. aeruginosa 91433 (colistin-resistant, MDR/XDR); assay: microbe, parasite or virus in culture; conditions: Pseudomonas aeruginosa, read-out: MIC (agent alone)
Procedure: as §4, §2, §3, §5

[23] = test system: P. aeruginosa 100036 (MDR/XDR); assay: microbe, parasite or virus in culture; conditions: Pseudomonas aeruginosa, read-out: MIC (agent alone)
Procedure: as §4, §2, §3, §5

[24] = test system: P. aeruginosa 259-96918 (MDR/XDR); assay: microbe, parasite or virus in culture; conditions: Pseudomonas aeruginosa, read-out: MIC (agent alone)
Procedure: as §4, §2, §3, §5

[25] = test system: P. aeruginosa 101243 (colistin-resistant, MDR/XDR); assay: microbe, parasite or virus in culture; conditions: antibiotic or lipopeptide alone; for MIC: Pseudomonas aeruginosa, read-out: MIC (agent alone), P. aeruginosa 101243 (colistin-resistant)
Procedure: as §4, §2, §3, §5

[26] = test system: P. aeruginosa 101885 (MDR/XDR); assay: microbe, parasite or virus in culture; conditions: Pseudomonas aeruginosa, read-out: MIC (agent alone)
Procedure: as §4, §2, §3, §5

[27] = test system: P. aeruginosa 262-101856 (MDR/XDR); assay: microbe, parasite or virus in culture; conditions: Pseudomonas aeruginosa, read-out: MIC (agent alone)
Procedure: as §4, §2, §3, §5

[28] = test system: P. aeruginosa 264-104354 (MDR/XDR); assay: microbe, parasite or virus in culture; conditions: Pseudomonas aeruginosa, read-out: MIC (agent alone)
Procedure: as §4, §2, §3, §5

[29] = test system: P. aeruginosa 260-97103 (MDR/XDR); assay: microbe, parasite or virus in culture; conditions: Pseudomonas aeruginosa, read-out: MIC (agent alone)
Procedure: as §4, §2, §3, §5

| Compound | MIC [1] [µg/mL] | MIC [2] [µg/mL] | MIC [3] [µg/mL] | MIC [4] [µg/mL] | MIC [5] [µg/mL] | MIC [6] [µg/mL] | MIC [7] [µg/mL] | MIC [8] [µg/mL] | MIC [9] [µg/mL] | MIC [10] [µg/mL] | MIC [11] [µg/mL] | MIC [12] [µg/mL] | MIC [13] [µg/mL] | MIC [14] [µg/mL] | MIC [15] [µg/mL] | MIC [16] [µg/mL] | MIC [17] [µg/mL] | MIC [21] [µg/mL] | MIC [22] [µg/mL] | MIC [23] [µg/mL] | further results |
| --- | --- | --- | --- | --- | --- | --- | --- | --- | --- | --- | --- | --- | --- | --- | --- | --- | --- | --- | --- | --- | --- |
| CCCCCCCC(=O)N1CCC[C@H]1C(=O)N[C@@H](CCCNC(=N)N)C(=O)N1CCC[C@H]1C(=O)N[C@@H](CCCNC(=N)N)C(=O)N1CCC[C@H]1C(=O)N[C@@H](CCCNC(=N)N)C(=O)N1CCC[C@H]1C(N)=O [Compound C8-PRP, CH3(CH2)6CO-PRPRPRP-NH2] (Octanoyl-PRPRPRP-NH2) | >128 | >128 | >128 | >128 | >128 | >128 | >128 | >512 | >128 | >128 | >128 | >128 | >128 | >128 | >128 | >128 | >128 | – | – | – | interaction with minocycline (in words) [18]: indifferent interaction; interaction with rifampicin (in words) [18]: indifferent interaction; MHC (minimum concentration that resulted in 5% red blood cell hemolysis) ([19]; red cells of porcine): >512 µg/mL |
| CCCCCCCCCCCCCCCC(=O)N1CCC[C@H]1C(=O)N[C@@H](CCCNC(=N)N)C(=O)N1CCC[C@H]1C(=O)NCC(=O)N1CCC[C@H]1C(=O)N[C@@H](CCCNC(=N)N)C(=O)N1CCC[C@H]1C(N)=O [Compound C16-PGP, CH3(CH2)14CO-PRPGPRP-NH2] (Palmitoyl-PRPGPRP-NH2) | 32 | 16 | 128 | 128 | 32 | 16 | 32 | 64 | 32 | 32 | 128 | 16 | 32 | 128 | 64 | 8 | 32 | – | – | – | MIC range [20]: 8 to 32 µg/mL; MHC (minimum concentration that resulted in 5% red blood cell hemolysis) [19]: 16 µg/mL |
| CN(C)c1ccc(O)c2c1C[C@H]1C[C@H]3[C@H](N(C)C)C(O)=C(C(N)=O)C(=O)[C@@]3(O)C(O)=C1C2=O [minocycline] | – | – | – | – | – | – | – | – | – | – | – | – | – | – | – | – | – | 8 | 32 | 16 | MIC [24]: 16 µg/mL; MIC (agent alone) ([25]; P. aeruginosa 101243 (colistin-resistant)): 4 µg/mL; MIC [25]: 2 µg/mL; MIC [26]: 16 µg/mL; MIC [27]: 64 µg/mL; MIC [28]: 32 µg/mL; MIC [29]: 16 µg/mL |
| CO[C@H]1/C=C/O[C@@]2(C)Oc3c(C)c(O)c4c(O)c(c(/C=N/N5CCN(C)CC5)c(O)c4c3C2=O)NC(=O)/C(C)=C\C=C\[C@H](C)[C@H](O)[C@@H](C)[C@@H](O)[C@@H](C)[C@H](OC(C)=O)[C@@H]1C [rifampicin] | – | – | – | – | – | – | – | – | – | – | – | – | – | – | – | – | – | 8 | 16 | 16 | MIC [24]: 16 µg/mL; MIC [25]: 4 µg/mL; MIC [26]: 16 µg/mL; MIC [27]: 512 µg/mL; MIC [28]: 8 µg/mL; MIC [29]: 16 µg/mL |
